Results published in US20150183738A1, “3-N-BUTYL-1-ISOINDOLINONE AND USE THEREOF FOR PREVENTING OR TREATING CEREBRAL INFARCTION” (SUN YAT-SEN UNIVERSITY, priority 2012, published 2015).
Entries after “also recorded” stand apart in the source; their conditions may differ.

Legend:
[1] = system: middle cerebral artery occlusion (MCAO) model in rats; experiment: Influence on cerebral infarct area/volume in MCAO models of rats (TTC staining, image J); assay type: in vivo, Male SD rats; details: for average infarct area: 30 mg/kg intraperitoneal injection 15 min after ischemia, 2 hrs of cerebral infarction and 24 hrs of reperfusion, TTC staining
Procedure: The middle cerebral artery occlusion (MCAO) model in rats is constructed to observe the anti-cerebral ischemia of 3-n-butyl-1-isoindolinone. The MCAO model is divided into three groups: 1) a negative control group, i. e., an vegetable oil, 3 mL/kg; 2) 3-n-butyl-1-isoindolinone group, 30 mg/kg; 3) a positive control group, i. e., 3-n-butylphthalide, 30 mg/kg. All the three groups are administered via intraperitoneal injection. Male SD rats having a weight of 250 g are selected and administered 15 min after the ischemia. After 2 hrs of cerebral infarction and 24 hrs of reperfusion, brain slices are prepared and conducted with TTC staining. Software image J is used to process staining results, calculate infarct areas, and compared with the results among different groups. It is known from the results that an average infarct area of the blank group is 24.430%, the average infarct area of the 3-n-butyl-1-isoindolinone group is 14.365%, and the average infarct area of the butylphthalide group is 14.402%. […] Male SD rats having a weight of between 250 and 270 g are selected. The Male SD rats are cultivated at a room temperature of 25° C. and are forbidden from feeding food except for water 12 hrs before the operation. The MCAO models are constructed in accordance with longa method or the like. 10% chloral hydrate is used to anesthetize the rats by intraperitoneal injection with a dose of 350 mg/kg. The rat is then upwardly fixed on a rat plate in a supine position and illuminated by an incandescent lamp for maintaining a body temperature thereof at 37±0.5° C. Rat hairs at the middle position of the neck are sheared, and the skin at such position is incised after disinfection. The common carotid artery (CCA), external carotid artery (ECA), and internal carotid artery (ICA) of the right side are carefully separated. The ECA is cut, and a cut end is straightened and aligned with the ICA, and a thread is then inserted therefrom. The thread is inserted for a depth of approximately 19.0±0.5 mm. After 2 hrs, a part of the thread is pulled out to realize reperfusion. The rat after suture ligation is then put back to the rat cage. After 24 hrs of reperfusion, brain slices are prepared for staining. The rats are divided into three groups with 10 in each group: 1) a blank control group, i. e., an vegetable oil, 3 mL/kg; 2) 3-n-butyl-1-isoindolinone group, 30 mg/kg; 3) a positive control group, i. e., 3-n-butylphthalide, 30 mg/kg. All the three groups are administered with drugs via intraperitoneal injection 15 min after modeling. After 24 hrs of reperfusion, brains are collected from killed rats and placed in Petri dishes. The brain tissues are quickly collected and placed in a refrigerator at a temperature of −20° C. for 20 min and taken out. The olfactory bulb, the cerebellum, and the lower brainstem are removed, and the remaining brain is then cut for five times with an interval of 2 mm, whereby six consecutive coronal brain slices are formed. 2% TTC dye solution is added to the Petri dishes to submerge the brain slice by the solution. The Petri dishes are placed at the temperature of 37° C. and incubated in the absence of light for between 25 and 30 min during which the brain slices are turned over once every 5 min. After TTC staining of the brain slices, a normal tissue thereof presents red and an ischemic region presents white. When the TTC staining is finished, the TTC dye solution is removed out of the Petri dishes by syringes. Formalin solution with an amount enabling to submerge the brain slices is then added, and the Petri dishes are placed in the dark. After 24 hrs, solidified brain slices are taken out and arranged in order in a blue background to take pictures. […]

[2] = system: middle cerebral artery occlusion (MCAO) model in rats; experiment: Neurobehavioral assessment (Zea Longa) in MCAO models of rats; assay type: in vivo, Male SD rats; details: score after 24 hrs of reperfusion; for alleviation of the neurobehavior compared with the blank control group (ANOVA): 30 mg/kg i.p.
Procedure: Male SD rats having a weight of between 250 and 270 g are selected. The Male SD rats are cultivated at a room temperature of 25° C. and are forbidden from feeding food except for water 12 hrs before the operation. The MCAO models are constructed in accordance with longa method or the like. 10% chloral hydrate is used to anesthetize the rats by intraperitoneal injection with a dose of 350 mg/kg. The rat is then upwardly fixed on a rat plate in a supine position and illuminated by an incandescent lamp for maintaining a body temperature thereof at 37±0.5° C. Rat hairs at the middle position of the neck are sheared, and the skin at such position is incised after disinfection. The common carotid artery (CCA), external carotid artery (ECA), and internal carotid artery (ICA) of the right side are carefully separated. The ECA is cut, and a cut end is straightened and aligned with the ICA, and a thread is then inserted therefrom. The thread is inserted for a depth of approximately 19.0±0.5 mm. After 2 hrs, a part of the thread is pulled out to realize reperfusion. The rat after suture ligation is then put back to the rat cage. After 24 hrs of reperfusion, brain slices are prepared for staining.
The rats are divided into three groups with 10 in each group: 1) a blank control group, i. e., an vegetable oil, 3 mL/kg; 2) 3-n-butyl-1-isoindolinone group, 30 mg/kg; 3) a positive control group, i. e., 3-n-butylphthalide, 30 mg/kg. All the three groups are administered with drugs via intraperitoneal injection 15 min after modeling.
According to Zea Longa assessment, ethology observation is conducted after 2 hrs of modeling and 24 hrs of reperfusion and before killing the rats. The tail of the rat is seized to lift the rat about 1 foot off the ground to observe the condition of the left forelimb. […]
After 24 hrs of reperfusion of the MCAO models of the rats, the neurobehavioral assessment is conducted on the rats again, and the results are recorded.

[3] = background statement; oily liquid; cited from earlier work
[4] = 30 mg/kg i.p., 2 hrs MCAO, 24 hrs reperfusion

| SMILES | reduced infarct area compared with the blank control group (one-factor ANOVA) [1, 4] | average infarct area [1] [%] | alleviation of the neurobehavior compared with the blank control group (ANOVA) [2] | water solubility [3] | infarct volume reduced compared with the solvent control group [1, 4] [%] | reduced infarct area, difference compared with butylphthalide (one-factor ANOVA) ([1]; both 30 mg/kg i.p., 2 hrs MCAO, 24 hrs reperfusion) | alleviation of the neurobehavior compared with the butylphthalide group (ANOVA) ([2]; both 30 mg/kg i.p.) |
| --- | --- | --- | --- | --- | --- | --- | --- |
| CCCCC1OC(=O)c2ccccc21 (stereo not shown) [butylphthalide, 3-n-butylphthalide, reference compound] | significant difference (P<0.01) | 14.402 | significant difference | water insoluble | – | – | – |
| CCCCC1NC(=O)c2ccccc21 (stereo not shown) [3-n-butyl-1-isoindolinone] | significant difference (P<0.001) | 14.365 | significant difference (P=0.003<0.01) | – | 41.199 | no significant statistical difference; also recorded: no statistical significance (P=0.989) | no significant difference (P=0.384>0.05) |
